We go through ten molecules from BindingDB's records for doi:10.1021/jm00051a003 (University of Washington, 1995).

The IC50 is the concentration at which inhibition is half-maximal.

The nature of this assay: Tested for the binding affinity against the Delta opioid receptor in guinea pig brain using [3H]DPDPE.
As for `Oc1ccc2c3c1OC1[C@H](OCc4ccc5ccccc5c4)CCC4(O)C(C2)N(CC2CC2)CCC314` (stereo not given in full), the concentration for half-maximal inhibition (IC50) was determined as 25 nM.

Take `Oc1ccc2c3c1OC1[C@H](OCc4ccc(-c5ccccc5)cc4)CCC4(O)C(C2)N(CC2CC2)CCC314` (stereo not given in full): the IC50 is 11 nM.

As for `Oc1ccc2c3c1OC1[C@@H](OCc4cccc5ccccc45)CCC4(O)C(C2)N(CC2CC2)CCC314` (stereo not given in full), the IC50 was 6.6 nM.

For the molecule `Oc1ccc2c3c1OC1[C@H](OCc4c5ccccc5cc5ccccc45)CCC4(O)C(C2)N(CC2CC2)CCC314` (stereo not given in full), the IC50 was determined as 48 nM.

The molecule `Oc1ccc2c3c1OC1[C@@H](OCc4ccccc4)CCC4(O)C(C2)N(CC2CC2)CCC314` (stereo not given in full) yielded an IC50 of 1.4 nM.

As to `O=C(COC1CCC2(O)C3Cc4ccc(O)c5c4C2(CCN3CC2CC2)C1O5)C1[C@H]2C[C@@H]3C[C@@H](C[C@H]1C3)C2` (stereo partly drawn) [17-(cyclopropylmethyl)-4,5alpha-epoxy-3,14-dihydroxy-6beta-morphinanyl 2-adamantyl-2-oxoethylether], the IC50 came out at 30 nM.

On to `Oc1ccc2c3c1OC1[C@@H](OCc4ccc(-c5ccccc5)cc4)CCC4(O)C(C2)N(CC2CC2)CCC314` (stereo not given in full), for which the IC50 is 19 nM.

`Oc1ccc2c3c1OC1[C@@H](OCc4c5ccccc5cc5ccccc45)CCC4(O)C(C2)N(CC2CC2)CCC314` (stereo not given in full): the IC50 is 36 nM.

As for `Oc1ccc2c3c1OC1[C@H](OCc4cccc5ccccc45)CCC4(O)C(C2)N(CC2CC2)CCC314` (stereo not given in full), the IC50 turned out to be 5.5 nM.

`Oc1ccc2c3c1OC1[C@@H](OCc4ccc5ccccc5c4)CCC4(O)C(C2)N(CC2CC2)CCC314` (stereo not given in full) displayed an IC50 of 20 nM.
